In assay [1] the test system is T cells, myeloid cells, B cells, and NK cells. As to the kind of experiment: mOX40L expression in splenic immune cells (flow cytometry). It counts as in vivo, C57BL/6 mice. The following applies: LNP 50:10:38.5:1.5, IL:P 5.7, 1 mg/kg intravenously, 24 hours; vs Lipid 15 of Table 10f. As for the experimental part: The ionizable lipid: helper lipid: cholesterol: PEG-lipid molar ratio of these LNPs was 50:10:38.5:1.5. Dialysis of the LNPs were performed using PBS. C57BL/6 female mice (6-8 weeks, n=4) were dosed at either LNP comprising Lipid 1 of Table 10e or the Lipid 15 of Table 10f at 1 mg/kg intravenously. At 24 hours, the spleen from the mice were collected for flow cytometry analysis. mOX40L transfection of Lipid 1 of Table 10e and Lipid 15 of Table 10f were compared in T cells, myeloid cells, B cells, and NK cells.

Another assay deals with splenic T cells. Nature of the assay: mOX40L expression in splenic T cells. The following applies: 1 mg/kg intravenously, 24 hours; IL:P 5.7, 50:10:38.5:1.5. It counts as in vivo, C57BL/6 mice. As for the experimental part:
The ionizable lipid: helper lipid: cholesterol: PEG-lipid molar ratio of these LNPs was 50:10:38.5:1.5. C57BL/6 female mice (6-8 weeks, n=4) were dosed at 1 mg/kg intravenously. At 24 hours, the spleen from the mice were collected for flow cytometry analysis, tested for weight loss and measured for serum alanine aminotransferase (ALT) after blood collection. mOX40L expression was measured in splenic T cells.

The structures appear in SMILES notation.

For `CCCCCCCCCCCCC(O)CN(CCCO)CCCCCCCC(=O)OC(CCCCCCCC)CCCCCCCC` (centres unmarked) [Lipid 1 of Table 10e, heptadecan-9-yl 8-((3-hydroxypropyl)(2-hydroxytetradecyl)amino)octanoate], the “mOX40L transfection in splenic immune cells” value in assay [1] is recorded as “comparable or higher levels of mOX40L transfection”. The “mOX40L expression in splenic T cells” value in the assay with splenic T cells is “resulted in expression of mOX40L in splenic T cells”.
